In patent US6544541B1, “Devices and compounds for treating arterial restenosis” (Cardiovascular Solutions, Inc., priority 1999, dated 2003):

What was measured:
MAP kinase = MAP kinase activity gel after insulin stimulation of H4IIE cells; assay type: cell-based; conditions: 50 μM MIBG; 1 μM insulin; 2-20 minutes; FIG. 27
Description: Extracts were prepared at 2, 5, 10 and 20 minutes after insulin addition. MAP kinase activity was measured using an activity gel protocol with myelin basic protein polymerized in the separating gel, as described in Yau and Zahradka, 1997, Mol Cell Biochem 172: 59-66. Scanning densitometry was used to quantify the band intensities. The location of the 42 and 44 kDa MAP kinase bands was confirmed by Western blot analysis.

smooth muscle cells [1] = conditions: cited from earlier work
H4IIE hepatoma cells [2] = assay: flow cytometry, bromodeoxyuridine incorporation in proliferating cells; assay type: cell-based; conditions: 25 μM MIBG, 48 hours; FIG. 4
Description: Additional verification that MIBG blocked cell proliferation was obtained using flow cytometry analysis. Proliferating H4IIE cells (<40% confluent) were incubated for 48 hours in the presence or absence (untreated control or containing MIBA) of 25 μM MIBG. The cells were pulse labeled with bromodeoxyuridine (BrdU) 2 hours before harvest to label replicating DNA. Cells were released by trypsinization, collected by centrifugation and permeabilized with Triton X-100 (1%). Replicated DNA was labeled with an anti-BrdU antibody conjugated to FITC (fluorescein isothiocyanate), while total DNA was labeled with propidium iodide. The FITC and propidium iodide labels were detected at 514 nm and 600 nm, respectively, with a Coulter flow cytometer™ (excitation wavelength 488 nm), and number of cells containing these fluors were quantified. The data were plotted as cells with propidium iodide versus cells with BrdU. […] To summarize, the results described above indicate that MIBG is a potent inhibitor of cell proliferation. Furthermore, the cellular process affected by MIBG is active throughout the cell cycle. This conclusion is based on the fact that there is no accumulation of cells at a specific phase of the cell cycle. In addition, it is of note that there is no apparent decrease in cell number or an increase in smaller cells, both characteristics of cell death.

c-fos = c-fos gene expression by RT-PCR in human smooth muscle cells; assay type: cell-based; conditions: 25 μM MIBG pretreatment (10 minutes), then IGF-1 stimulated 15 minutes
[3] = system: porcine radial artery to coronary artery anastomoses; assay: bypass graft organ culture, PCNA expression; conditions: 25 μM, 14 days in culture; FIG. 18
Description: Analogous to the organ culture model described above, a model of a radial artery to coronary artery bypass graft has been developed. It is of note that the construction of this anastomosis is identical to that used clinically in a bypass operation. Specifically, porcine radial artery to coronary artery anstomoses were conducted and placed into culture for 14 days. Control segments included coronary artery dissected and immediately frozen or incubated for 14 days before freezing. Alternatively, the anastomoses were incubated in the presence of 25 μM MIBG. PCNA (proliferating cell nuclear antigen) was detected by immunostaining after cryosectioning of the vessels. Nuclei were visualized with Hoescht […]. The numbers of nuclei and PCNA positive nuclei were determined and used to quantify the proliferation index.

L1210 = conditions: non-neuronal cell line L1210; cited from earlier work
H4IIE hepatoma cells [4] = assay: RNA synthesis (3H-uridine incorporation) in insulin-stimulated quiescent H4IIE cells; assay type: cell-based; conditions: comparison with 3-aminobenzamide; 1 μM insulin, 6 hours; FIG. 1
Description: Incorporation of uridine or thymidine was used to define the change in rate of […] synthesis, respectively, in response to a mitogen such as insulin. Specifically, quiescent H4IIE cells were prepared by placing the cultures (in 24-well dishes) into serum-free a-minimal essential medium for 3 days. It is of note that the normal growth media for H4IIE cells is α-MEM containing 10% fetal bovine serum (FBS). […] Cells were subsequently lysed with detergent and the nucleic acids precipitated with 5% trichloroacetic acid. The precipitated material was collected on glass fibre filters and the radioactive content measured by scintillation counting.

H4IIE hepatoma cells [5] = assay: DNA synthesis (3H-thymidine incorporation) in H4IIE cells; assay type: cell-based
Description: Incorporation of uridine or thymidine was used to define the change in rate of […] synthesis, respectively, in response to a mitogen such as insulin. Specifically, quiescent H4IIE cells were prepared by placing the cultures (in 24-well dishes) into serum-free a-minimal essential medium for 3 days. It is of note that the normal growth media for H4IIE cells is α-MEM containing 10% fetal bovine serum (FBS). After reaching quiescence, the cells were stimulated with 1 μM insulin and incubated for either 6 hours or 24 hours in the presence of 1 μCi/ml ^3H-uridine or ^3H-thymidine, respectively. Cells were subsequently lysed with detergent and the nucleic acids precipitated with 5% trichloroacetic acid. The precipitated material was collected on glass fibre filters and the radioactive content measured by scintillation counting. […] Furthermore, while complete inhibition of DNA synthesis by MIBG is obtained at approximately 20 μM, higher concentrations decrease basal DNA synthesis below control levels.

[6] = system: smooth muscle cells derived from human arterial conduits; assay: DNA synthesis and cytotoxicity in human smooth muscle cells; conditions: FIG. 26A
[7] = system: Friend erythroleukemia cells; assay: Friend cell differentiation; assay type: cell-based
Description: It is of note however that MIBG acts at a point in the differentiation pathway that is distinct from 3-aminobenzamide.

L6 myoblasts = assay: L6 myoblast differentiation; assay type: cell-based; conditions: 25 μM; 2.5% horse serum; 4 days; FIG. 32
smooth muscle cells [8] = assay: Boyden chamber smooth muscle cell migration in response to Angiotensin II; assay type: cell-based; conditions: 20 μM; 10 μM Angiotensin II in lower compartment; FIG. 17
Description: Specifically, smooth muscle cells were seeded into the upper chamber of a Boyden chamber, which consists of two compartments that are separated by a permeable membrane. […] Specifically, migration to the lower compartment was determined by counting cells on the underside of the membrane. Data are presented as means ± standard error for six independent determinations.

meta-iodobenzylguanidine [MIBG]
MAP kinase activation by insulin (MAP kinase): does not inhibit MAP kinase activation by insulin | DNA synthesis (thymidine uptake) (smooth muscle cells [1]): had no effect on DNA synthesis | cell number (smooth muscle cells [1]): prevents an increase in cell number | production of collagen type I (smooth muscle cells [1]): decreased the production of collagen type I | bromodeoxyuridine incorporation (DNA synthesis) (H4IIE hepatoma cells [2]): no bromodeoxyuridine incorporation is observed | c-fos mRNA levels (c-fos): equivalent to or below basal | increase in PCNA expression compared to segment examined immediately after dissection [3]: < 10 fold | concentration in cells relative to the surrounding medium (L1210): 15 times | inhibition of cell growth as indicated by RNA synthesis in response to insulin (H4IIE hepatoma cells [4]): more potent inhibitor of cell growth | concentration for complete inhibition of DNA synthesis (H4IIE hepatoma cells [5]; 1 μM insulin, 24 hours, FIG. 2): approximately 20 μM | inhibition of DNA synthesis (thymidine incorporation) (H4IIE hepatoma cells [5]; H4IIE cells): inhibits DNA synthesis | DNA synthesis and cytotoxicity compared with porcine cells [6]: comparable effects in both porcine and human tissues | effect on Friend cell differentiation [7]: inhibits Friend cell differentiation following commitment | effect on L6 myoblast differentiation (L6 myoblasts): inhibits differentiation of L6 myoblasts at an early stage | smooth muscle cell migration (smooth muscle cells [8]): inhibited smooth muscle cell migration
